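Interpolation was linear, between the two tested concentrations surrounding the appropriate level; five concentrations were tested over 48 hours in 96-well plates. At the GI50, growth is halved. At the TGI there is no net growth.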
Columns and labels:
Test in all cases: NCI anticancer screen, dose series, 48 h
[1] = test system: K-562 leukemia
[2] = test system: HCC-2998 colon
[3] = test system: DU-145 prostate
[4] = test system: OVCAR-8 ovarian
[5] = test system: MDA-MB-435
[6] = test system: COLO 205 colon
[7] = test system: CCRF-CEM leukemia
[8] = test system: SF-295 CNS
[9] = test system: SR leukemia
[10] = test system: SNB-19 CNS
[11] = test system: UACC-257 melanoma
[12] = test system: SK-MEL-28 melanoma
[13] = test system: NCI-H460 lung
[14] = test system: LOX IMVI melanoma
[15] = test system: NCI-H522 lung
[16] = test system: NCI-H23 lung
[17] = test system: PC-3 prostate
[18] = test system: SW-620 colon
[19] = test system: NCI/ADR-RES ovarian
[20] = test system: HOP-92 NSCLC
[21] = test system: NCI-H226 lung
[22] = test system: OVCAR-4 ovarian
[23] = test system: ACHN renal
[24] = test system: SN12C renal
[25] = test system: U251 CNS
[26] = test system: OVCAR-5 ovarian
[27] = test system: TK-10 renal
[28] = test system: MCF7 breast
[29] = test system: SF-268 CNS
[30] = test system: M14 melanoma
[31] = test system: UACC-62 melanoma
[32] = test system: HCT-116 colon
[33] = test system: IGROV1 ovarian
[34] = test system: SK-MEL-2 melanoma
[35] = test system: BT-549 breast
[36] = test system: SNB-75 CNS
[37] = test system: MOLT-4 leukemia
[38] = test system: RXF 393 renal
[39] = test system: EKVX NSCLC
[40] = test system: HL-60(TB) leukemia
[41] = test system: SF-539 CNS
[42] = test system: A498 renal
[43] = test system: KM12 colon
[44] = test system: HOP-62 NSCLC
[45] = test system: OVCAR-3 ovarian
[46] = test system: UO-31 renal
[47] = test system: HS 578T breast
[48] = test system: SK-MEL-5 melanoma
[49] = test system: T-47D breast
[50] = test system: A549 NSCLC
[51] = test system: HCT-15 colon
[52] = test system: MALME-3M melanoma
[53] = test system: SK-OV-3 ovarian
[54] = test system: RPMI-8226 leukemia
[55] = test system: MDA-MB-231 breast
[56] = test system: 786-0 renal
[57] = test system: HT29 colon

## C=C1C(=O)O[C@H]2[C@H]1CC/C(COC(=O)c1cn(C)c3ccccc13)=C\CC[C@@]1(C)O[C@@H]21
[1]
  GI50: 400 nM
  TGI: 5130 nM
[2]
  GI50: 1810 nM
  TGI: 3800 nM
[3]
  GI50: 1010 nM
  TGI: 2200 nM
[4]
  GI50: 800 nM
  TGI: 2400 nM
[5]
  GI50: 1340 nM
  TGI: 3340 nM
[6]
  GI50: 1240 nM
  TGI: 2590 nM
[7]
  GI50: 217 nM
  TGI: 940 nM
[8]
  GI50: 2410 nM
  TGI: 6980 nM
[9]
  GI50: 342 nM
  TGI: 1170 nM
[10]
  GI50: 1590 nM
  TGI: 3640 nM
[11]
  GI50: 1320 nM
  TGI: 2650 nM
[12]
  GI50: 1550 nM
  TGI: 3080 nM
[13]
  GI50: 1730 nM
  TGI: 3920 nM
[14]
  GI50: 228 nM
  TGI: 810 nM
[15]
  GI50: 399 nM
  TGI: 1620 nM
[16]
  GI50: 1930 nM
  TGI: 4920 nM
[17]
  GI50: 1470 nM
  TGI: 4290 nM
[18]
  GI50: 301 nM
  TGI: 1100 nM
[19]
  GI50: 2150 nM
  TGI: 14200 nM
[20]
  GI50: 365 nM
  TGI: 2000 nM
[21]
  GI50: 1480 nM
  TGI: 3260 nM
[22]
  GI50: 1140 nM
  TGI: 3040 nM
[23]
  GI50: 828 nM
  TGI: 2090 nM
[24]
  GI50: 719 nM
  TGI: 2300 nM
[25]
  GI50: 1420 nM
  TGI: 2770 nM
[26]
  GI50: 1560 nM
  TGI: 4110 nM
[27]
  GI50: 1100 nM
  TGI: 2300 nM
[28]
  GI50: 400 nM
  TGI: 1980 nM
[29]
  GI50: 1300 nM
  TGI: 2860 nM
[30]
  GI50: 1410 nM
  TGI: 3300 nM
[31]
  GI50: 1260 nM
  TGI: 2740 nM
[32]
  GI50: 1020 nM
  TGI: 2240 nM
[33]
  GI50: 692 nM
  TGI: 2580 nM
[34]
  GI50: 1380 nM
  TGI: 2820 nM
[35]
  GI50: 514 nM
  TGI: 1990 nM
[36]
  GI50: 1090 nM
  TGI: 2320 nM
[37]
  GI50: 578 nM
  TGI: 3540 nM
[38]
  GI50: 589 nM
  TGI: 2110 nM
[39]
  GI50: 962 nM
  TGI: 3420 nM
[40]
  GI50: 1540 nM
  TGI: 4170 nM
[41]
  GI50: 741 nM
  TGI: 2130 nM
[42]
  GI50: 1590 nM
  TGI: 3050 nM
[43]
  GI50: 1830 nM
  TGI: 4790 nM
[44]
  GI50: 1810 nM
  TGI: 3760 nM
[45]
  GI50: 384 nM
  TGI: 1480 nM
[46]
  GI50: 775 nM
  TGI: 2100 nM
[47]
  GI50: 2390 nM
  TGI: 9470 nM
[48]
  GI50: 1420 nM
  TGI: 2770 nM
[49]
  GI50: 1190 nM
  TGI: 3420 nM
[50]
  GI50: 1820 nM
  TGI: 4230 nM
[51]
  GI50: 539 nM
  TGI: 2260 nM
[52]
  GI50: 1620 nM
  TGI: 3340 nM
[53]
  GI50: 4330 nM
  TGI: 15000 nM
[54]
  GI50: 217 nM
  TGI: 665 nM
[55]
  GI50: 1050 nM
  TGI: 2470 nM
[56]
  GI50: 1460 nM
  TGI: 2880 nM
[57]
  GI50: 526 nM
  TGI: 1780 nM

## COc1cc(-c2nn(-c3cccc(NC(=O)NCCNS(=O)(=O)c4ccc(Cl)cc4)c3)cc2-c2ccncc2)ccc1Cl
[2]
  GI50: 1690 nM
  TGI: 5090 nM
[3]
  GI50: 956 nM
  TGI: > 100000 nM
[4]
  GI50: 1710 nM
  TGI: 8480 nM
[5]
  GI50: 207 nM
  TGI: 515 nM
[7]
  GI50: 419 nM
  TGI: > 100000 nM
[8]
  GI50: 513 nM
  TGI: 2090 nM
[9]
  GI50: 466 nM
  TGI: 3530 nM
[10]
  GI50: 1160 nM
  TGI: > 100000 nM
[11]
  GI50: 541 nM
  TGI: 3340 nM
[12]
  GI50: 1480 nM
  TGI: 13200 nM
[13]
  GI50: 413 nM
  TGI: 3690 nM
[14]
  GI50: 559 nM
  TGI: 2460 nM
[15]
  GI50: 311 nM
  TGI: 1350 nM
[16]
  GI50: 1210 nM
  TGI: 8790 nM
[17]
  GI50: 490 nM
  TGI: 9550 nM
[18]
  GI50: 524 nM
  TGI: 30300 nM
[19]
  GI50: 22700 nM
  TGI: > 100000 nM
[20]
  GI50: 886 nM
  TGI: 5450 nM
[21]
  GI50: 1450 nM
  TGI: 14300 nM
[22]
  GI50: 1030 nM
  TGI: 92000 nM
[23]
  GI50: 2690 nM
  TGI: 11800 nM
[24]
  GI50: 1190 nM
  TGI: 13200 nM
[25]
  GI50: 494 nM
  TGI: 2090 nM
[26]
  GI50: 2820 nM
  TGI: > 100000 nM
[27]
  GI50: 2810 nM
  TGI: 9260 nM
[28]
  GI50: 363 nM
  TGI: > 100000 nM
[29]
  GI50: 792 nM
  TGI: 4390 nM
[30]
  GI50: 423 nM
  TGI: 2420 nM
[31]
  GI50: 499 nM
  TGI: 2390 nM
[32]
  GI50: 381 nM
  TGI: 2470 nM
[33]
  GI50: 1180 nM
  TGI: > 100000 nM
[34]
  GI50: 629 nM
  TGI: 2810 nM
[35]
  GI50: 1230 nM
  TGI: 5140 nM
[36]
  GI50: 353 nM
  TGI: > 100000 nM
[37]
  GI50: 1030 nM
  TGI: > 100000 nM
[38]
  GI50: 307 nM
  TGI: 2180 nM
[39]
  GI50: 2150 nM
  TGI: > 100000 nM
[40]
  GI50: 466 nM
  TGI: > 100000 nM
[41]
  GI50: 480 nM
  TGI: 2110 nM
[42]
  GI50: 578 nM
  TGI: 4310 nM
[43]
  GI50: 456 nM
  TGI: 2410 nM
[44]
  GI50: 1080 nM
  TGI: 33000 nM
[45]
  GI50: 371 nM
  TGI: 1550 nM
[46]
  GI50: 2450 nM
  TGI: > 100000 nM
[47]
  GI50: 351 nM
  TGI: 5140 nM
[48]
  GI50: 493 nM
  TGI: 1830 nM
[49]
  GI50: 646 nM
  TGI: 18100 nM
[50]
  GI50: 1930 nM
  TGI: 37400 nM
[51]
  GI50: 2450 nM
  TGI: 8550 nM
[52]
  GI50: 588 nM
  TGI: 2870 nM
[53]
  GI50: 1850 nM
  TGI: 17500 nM
[55]
  GI50: 1510 nM
  TGI: 4380 nM
[56]
  GI50: 1500 nM
  TGI: 5780 nM
[57]
  GI50: 370 nM
  TGI: 1510 nM

Reference: PubChem BioAssay (NCI)
